Structures are written as SMILES.

One assay is described as follows: The compound was tested for the inhibition of Protein phosphatase-1 (PP1). The settings on record: read-out: Ki app.
As for `O=C(O)[C@@H]1[C@H](C(=O)O)[C@H]2CC[C@@H]1O2` [ENDOTHALL], the Ki turned out to be 4000 nM.

As to `O=C1OC(=O)[C@@H]2[C@H]1[C@@H]1O[C@H]2C[C@@H]1COC(=O)[C@@H]1C[C@H]1c1ccccc1`, the Ki is 4000 nM.

A further assay in a line: Inhibition of Protein phosphatase 2B. Also on record: species or system Homo sapiens. The settings on record: read-out: Ki app.
Take `O=C(O)[C@@H]1[C@H](C(=O)O)[C@H]2CC[C@@H]1O2` [ENDOTHALL]: the Ki was 11500 nM.

Turning to `O=C(Cc1c[nH]c2ccccc12)OC[C@H]1C[C@@H]2O[C@H]1[C@H]1C(=O)OC(=O)[C@H]12`, the Ki amounted to 2000 nM.

As to `O=C(CCCC1CCCCC1)OC[C@H]1C[C@@H]2O[C@H]1[C@H]1C(=O)OC(=O)[C@H]12`, the Ki amounted to 1000 nM.

Turning to `O=C(CCCc1ccccc1)OC[C@H]1C[C@@H]2O[C@H]1[C@H]1C(=O)OC(=O)[C@H]12`, the Ki turned out to be 1200 nM.

As for `O=C(OC[C@H]1C[C@@H]2O[C@H]1[C@H]1C(=O)OC(=O)[C@H]12)c1cccc(Oc2ccccc2)c1`, the Ki was 1800 nM.

On to `O=C1OC(=O)[C@@H]2[C@H]1[C@@H]1O[C@H]2C[C@@H]1COC(=O)[C@@H]1C[C@H]1c1ccccc1`, for which the Ki came to 500 nM.

Consider `O=C(Cc1ccccc1)OC[C@H]1C[C@@H]2O[C@H]1[C@H]1C(=O)OC(=O)[C@H]12`, for which the Ki is 7400 nM.

Take `O=C(CCc1ccccc1)OC[C@H]1C[C@@H]2O[C@H]1[C@H]1C(=O)OC(=O)[C@H]12`: the Ki is 3700 nM.

Regarding `O=C(CCCCc1ccccc1)OC[C@H]1C[C@@H]2O[C@H]1[C@H]1C(=O)OC(=O)[C@H]12`, the Ki was found to be 2300 nM.

Regarding `O=C(OC[C@H]1C[C@@H]2O[C@H]1[C@H]1C(=O)OC(=O)[C@H]12)c1ccc(Oc2ccccc2)cc1`, the Ki amounted to 1400 nM.

Regarding `O=C(OC[C@H]1C[C@@H]2O[C@H]1[C@H]1C(=O)OC(=O)[C@H]12)c1ccccc1`, the Ki stood at 11000 nM.

These data come from ChEMBL document CHEMBL1151051, “Structure-based design of novel calcineurin (PP2B) inhibitors” (Bioorg Med Chem Lett, 1997).
